“Also recorded” adds a separate entry of the source.
System: U87MG glioblastoma cells
Test: Relative sensitivity to erlotinib of U87MG lines expressing PTEN, EGFR, EGFRvIII (crystal violet)
Assay type: cell-based
Conditions: erlotinib 0-10 μM, 10-14 days, U87-PTEN
Method: FIG. 3. […] 1000 cells/well of each cell line was seeded into 96-well plates in 8 replicates. […] Experiments were repeated 3 times in 8 replicates for each condition.
Following retroviral transduction we selected the following stable cell lines: U87-PTEN, U87-EGFR, U87-PTEN-EGFR, U87-EGFRvIII and U87-PTEN-EGFRvIII.
Functional analysis of effect of EGFR, EGFRvIII and PTEN coexpression: Human EGFR and EGFRvIII cDNAs were retrovirally introduced into U87MG and U87MG-PTEN over-expressing cells and selected for antibiotic resistance. Multiple stable clones were analyzed for the expression of PTEN, EGFR or EGFRvIII by immunoblot. […] The background reading of the wells containing medium alone was subtracted from experimental wells.

## C#Cc1cccc(Nc2ncnc3cc(OCCOC)c(OCCOC)cc23)c1 [Erlotinib]
  sensitization of glioblastoma cells to erlotinib: EGFRvIII and PTEN co-expression sensitizes glioblastoma cells to erlotinib; also recorded: EGFRvIII sensitized glioblastoma cells to erlotinib, but only when PTEN was co-expressed

— patent US20110045459A1, “Molecular determinants of EGFR kinase inhibitor response in glioblastoma” (priority 2005, published 2011)
